According to US11178870B2 (priority 2017, dated 2021):

Columns and labels:
Format in all cases: in vivo
[1] = tested on: Blumeria graminis f. sp. hordei; assay: Test Example D: Powdery mildew on barley; settings: Powdery mildew on barley, read-out: Test D control value
Phytophthora infestans = assay: whole plant or invertebrate; settings: in Solanum lycopersicum, read-out: Test F control value
Botrytis cinerea = assay: Test Example B: Gray mold on tomato; settings: Gray mold on tomato, read-out: Test B control value
Puccinia recondita = assay: Test Example E: Brown rust on wheat; settings: Brown rust on wheat, read-out: Test E control value
Alternaia brassicicola = assay: Test Example C: Alternaria sooty spot on cabbage; settings: Brassica oleracea; Alternaria sooty spot on cabbage; read-out: Test C control value
Magnaporthe grisea = assay: whole plant or invertebrate; settings: Pyricularia oryzae, in Oryza sativa, read-out: Test A control value
Plasmopara viticola = assay: Test Example G: Downy mildew on vine; settings: Downy mildew on vine, 250 ppm sprayed, 2.5 ml/pot, 7 to 10 days after inoculation, read-out: Test G control value

Row | SMILES | pest or weed control at 250 µg/mL [1] | pest or weed control at 250 µg/mL (Phytophthora infestans) | pest or weed control at 250 µg/mL (Botrytis cinerea) | pest or weed control at 250 µg/mL (Puccinia recondita) | pest or weed control at 250 µg/mL (Alternaia brassicicola) | pest or weed control at 250 µg/mL (Magnaporthe grisea) | pest or weed control at 250 ppm (Plasmopara viticola)
1 | CCn1c(-c2c(F)cc(OC)cc2F)c(-c2c(Br)cnn2C)cc(Cl)c1=O [compound 23, 5-(4-bromo-1-methyl-1H-pyrazol-5-yl)-3-chloro-6-(2,6-difluoro-4-methoxyphenyl)-1-ethylpyridin-2(1H)-one] | > 50% | < 50% | > 50% | > 50% | > 50% | > 50% | < 50%
2 | CCn1c(-c2c(F)cc(F)cc2F)c(-c2nn(C)cc2Br)cc(Cl)c1=O [compound 24, 5-(4-bromo-1-methyl-1H-pyrazol-3-yl)-3-chloro-1-ethyl-6-(2,4,6-trifluorophenyl)pyridin-2(1H)-one] | > 50% | < 50% | > 50% | > 50% | > 50% | > 50% | > 50%
3 | CCN1C(=O)CCC(n2cccn2)=C1c1c(F)cc(F)cc1F [compound 25, 1-ethyl-5-(1H-pyrazol-1-yl)-6-(2,4,6-trifluorophenyl)-3,4-dihydropyridin-2(1H)-one] | > 50% | < 50% | < 50% | < 50% | > 50% | < 50% | < 50%
4 | CCn1c(-c2c(F)cc(F)cc2F)c(-n2cccn2)ccc1=O [compound 26, 1-ethyl-5-(1H-pyrazol-1-yl)-6-(2,4,6-trifluorophenyl)pyridin-2(1H)-one] | > 50% | < 50% | > 50% | > 50% | > 50% | > 50% | < 50%
5 | CCn1c(-c2c(F)cc(F)cc2F)c(-n2cc(Cl)cn2)ccc1=O [compound 27, 5-(4-chloro-1H-pyrazol-1-yl)-1-ethyl-6-(2,4,6-trifluorophenyl)-pyridin-2(1H)-one] | > 50% | < 50% | > 50% | > 50% | > 50% | < 50% | < 50%
6 | CCn1c(-c2c(F)cc(F)cc2F)c(-n2cncn2)cc(Cl)c1=O [compound 34, 3-chloro-1-ethyl-5-(1H-1,2,4-triazol-1-yl)-6-(2,4,6-trifluorophenyl)pyridin-2(1H)-one] | > 50% | < 50% | > 50% | > 50% | > 50% | > 50% | < 50%
7 | CCn1c(-c2c(F)cc(F)cc2F)c(-n2ncnc2Br)cc(Cl)c1=O [compound 35, 5-(5-bromo-1H-1,2,4-triazol-1-yl)-3-chloro-1-ethyl-6-(2,4,6-trifluorophenyl)pyridin-2(1H)-one] | > 50% | < 50% | > 50% | > 50% | > 50% | > 50% | < 50%
8 | CCn1c(-c2c(F)cc(F)cc2F)c(-c2cnco2)cc(Cl)c1=O [compound 36, 3-chloro-1-ethyl-5-(oxazol-5-yl)-6-(2,4,6-trifluorophenyl)pyridin-2(1H)-one] | < 50% | < 50% | < 50% | > 50% | > 50% | > 50% | < 50%
9 | CCn1c(-c2c(F)cc(F)cc2F)c(-n2cc(Cl)cn2)cc(Cl)c1=O [compound 40, 3-chloro-5-(4-chloro-1H-pyrazol-1-yl)-1-ethyl-6-(2,4,6-trifluoro-phenyl)pyridin-2(1H)-one] | > 50% | < 50% | > 50% | > 50% | > 50% | > 50% | < 50%
10 | CCn1c(-c2c(F)cc(OC)cc2F)c(-n2cc(Cl)cn2)cc(Cl)c1=O [compound 41, 3-chloro-5-(4-chloro-1H-pyrazol-1-yl)-6-(2,6-difluoro-4-methoxyphenyl)-1-ethylpyridin-2(1H)-one] | > 50% | < 50% | > 50% | > 50% | > 50% | > 50% | < 50%
11 | CCn1c(-c2c(F)cccc2F)c(-c2ocnc2C)cc(Cl)c1=O [compound 43, 3-chloro-6-(2,6-difluorophenyl)-1-ethyl-5-(4-methyloxazol-5-yl)pyridin-2(1H)-one] | > 50% | < 50% | > 50% | > 50% | > 50% | > 50% | < 50%
12 | CCn1c(-c2c(F)cc(F)cc2F)c(-n2cc(Br)cn2)cc(Cl)c1=O [compound 70, 5-(4-bromo-1H-pyrazol-1-yl)-3-chloro-1-ethyl-6-(2,4,6-trifluorophenyl)pyridin-2(1H)-one] | > 50% | < 50% | > 50% | > 50% | > 50% | > 50% | < 50%
13 | CCn1c(-c2c(F)cc(F)cc2F)c(-n2cc(Cl)cn2)cc(Br)c1=O [compound 71, 5-(4-chloro-1H-pyrazol-1-yl)-1-ethyl-3-bromo-6-(2,4,6-trifluoro-phenyl)pyridin-2(1H)-one] | > 50% | < 50% | > 50% | > 50% | > 50% | > 50% | < 50%
14 | CCn1c(-c2c(F)cc(OC)cc2F)c(-n2cc(Br)cn2)cc(Cl)c1=O [compound 72, 5-(4-bromo-1H-pyrazol-1-yl)-3-chloro-6-(2,6-difluoro-4-methoxyphenyl)-1-ethylpyridin-2(1H)-one] | > 50% | < 50% | > 50% | > 50% | > 50% | > 50% | < 50%
15 | CCn1c(-c2c(F)cccc2F)c(-c2c[nH]cc2C#N)cc(Cl)c1=O [compound 88, 4-(5-chloro-1-ethyl-6-oxo-2-(2,6-difluorophenyl)-1,6-dihydro-pyridin-3-yl)-1H-pyrrol-3-carbonitrile] | < 50% | < 50% | < 50% | < 50% | > 50% | < 50% | < 50%
16 | CCn1c(-c2c(F)cc(F)cc2F)c(-c2ocnc2Cl)cc(Cl)c1=O [compound 112, 3-chloro-5-(4-chlorooxazol-5-yl)-1-ethyl-6-(2,4,6-trifluoro-phenyl)pyridin-2(1H)-one] | > 50% | < 50% | > 50% | > 50% | > 50% | > 50% | > 50%
17 | CCn1c(-c2c(F)cc(F)cc2F)c(-n2cnc(Cl)c2Cl)ccc1=O [compound 136, 5-(4,5-dichloro-1H-imidazol-1-yl)-1-ethyl-6-(2,4,6-trifluorophenyl)pyridin-2(1H)-one] | > 50% | < 50% | > 50% | > 50% | > 50% | > 50% | > 50%
18 | CCn1c(-c2c(F)cc(F)cc2F)c(-n2cnc(Cl)c2Cl)cc(Cl)c1=O [compound 138, 3-chloro-5-(4,5-dichloro-1H-imidazol-1-yl)-1-ethyl-6-(2,4,6-trifluorophenyl)pyridin-2(1H)-one] | > 50% | < 50% | > 50% | > 50% | > 50% | > 50% | < 50%
19 | CCn1c(-c2c(F)cc(F)cc2F)c(-n2cc(Cl)cn2)cc(I)c1=O [compound 140, 5-(4-chloro-1H-pyrazol-1-yl)-1-ethyl-3-iodo-6-(2,4,6-trifluoro-phenyl)pyridin-2(1H)-one] | > 50% | < 50% | > 50% | > 50% | > 50% | < 50% | < 50%
